# Non-standard residues stand in square brackets, D forms with d. No end group written: not given here.
# Tests used:
# FapC = target: T1, FapC (Pseudomonas aeruginosa, UniProt Q9I2F0); assay: FapC in vitro ThT aggregation assay; assay type: biochemical, P. aeruginosa; settings: 0.2 mg/mL FapC, 37° C.
# T1 sequence (Q9I2F0 25-340): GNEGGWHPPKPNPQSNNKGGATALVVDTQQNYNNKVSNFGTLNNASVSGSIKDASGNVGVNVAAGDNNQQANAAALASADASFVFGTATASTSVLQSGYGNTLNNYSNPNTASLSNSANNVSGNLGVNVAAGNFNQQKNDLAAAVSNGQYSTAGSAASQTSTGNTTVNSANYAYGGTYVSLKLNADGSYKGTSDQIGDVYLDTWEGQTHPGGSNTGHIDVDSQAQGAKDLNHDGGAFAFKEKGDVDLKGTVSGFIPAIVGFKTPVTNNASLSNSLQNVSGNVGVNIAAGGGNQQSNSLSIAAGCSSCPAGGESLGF
# Procedure: FIG. 15. Action of synthetic α-sheet peptides in the P. aeruginosa system. […] Error bars indicate standard deviation of the mean of at least three replicates. Significance values are p<0.05: *, p<0.01: **, p<0.001: ***.
# Samples are aliquoted into 96 well plates and incubated in a plate reader at 37° C. with shaking every 5 min. As previously, the fluorescence of ThT monitors protein fibril formation in real time. Synthetic α-sheet peptides may also be added to the reaction to determine whether they inhibit FapC fibril formation, as in the case of AP90 (FIG. 15A).
# S. mutans biofilm = assay: TEM of S. mutans biofilm; assay type: cell-based, Streptococcus mutans; settings: 100 μM (FIG. 16)
# Procedure: FIG. 16. Synthetic α-sheet peptides as a novel anti-biofilm agent for the dental pathogen, S. mutans. A) ThT fluorescence of S. mutans biofilms decreases upon addition of synthetic α-sheet peptides AP193, AP407, and AP90. […] D) synthetic α-sheet peptides added to S. mutans grown on hydroxyapatite ceramic particles led to significant decreases in ThT fluorescence.
# The phenotypic effects of synthetic α-sheet peptides were determined using TEM.
# UTI89 ΔcsgA biofilms = assay: In situ ThT assay in UTI89 ΔcsgA knockout biofilms; assay type: cell-based, E. coli; settings: UTI89 ΔcsgA knockout strain
# Procedure: FIG. 12. […] Error bars indicate standard deviation of the mean of at least three replicates. Significance values are p<0.05: *, p<0.01: **, p<0.001: ***.
# Biofilms of the cystitis E. coli isolate UTI89 were cultivated in YESCA broth with 4% DMSO at 26° C., conditions which are known to elicit increased curli biogenesis. Varying doses of the dimeric α-sheet peptide, AP193, were also added to the cultures at the time of inoculation. AP193 is covalently linked through a single cysteine in each of its constituent monomers. Since DMSO was already present in the biofilm growth medium, AP193 stocks were supplemented with 4% DMSO to improve solubility, and the buffer solution was maintained at high pH (sodium carbonate, pH 9.6) to retain oxidation of the disulfide bond. After 48 hours of growth, biofilms were washed, homogenized, and stained with ThT.
# UTI89 biofilms were also cultivated in the presence of an unstructured peptide, P1, which retains a mixture of L- and D-amino acids but lacks the α-sheet secondary structure of AP193.
# [1] = test system: E. coli UTI89 vsfGFP-9 biofilms; assay: Immune clearance test: phagocytosis of biofilm bacteria by RAW 264.7 macrophages (flow cytometry); assay type: cell-based; settings: RAW 264.7 cells, 10:1 bacteria:cell, 30 min, 37° C.
# Procedure: FIG. 14. The macrophages are not able to phagocytose biofilm-associated bacteria (A). Administration of AP193 breaks up the biofilms and yields a greater fraction of free-swimming bacteria that are susceptible to phagocytosis (B).
# To investigate this proposition, biofilms were cultivated in the presence or absence of synthetic α-sheet peptides (shown for AP193 in FIG. 14) and then co-incubated with murine macrophages. A chromosome-based GFP derivative of E. coli UTI89, vsfGFP-9, was used to visualize the extent of phagocytosis in each case with flow cytometry. Murine monocyte/macrophage-like cells, RAW 264.7, were cultured in DMED+10% FBS at 37° C. in 75 cm^2 flasks. Biofilms were grown in 48 well plates for 48 h in YESCA broth+4% DMSO at 26° C. Planktonic cells were aspirated and biofilms rinsed and gently detached from plates using sterile PBS. The suspensions were combined in a 10:1 (bacteria:cell) ratio with RAW 264.7 cells and incubated for 30 min at 37° C. in PBS to allow uptake of bacteria by macrophages. Trypsin was added at a concentration of 0.25% and incubated for 10 min to remove any bacteria bound to the external surfaces of the RAW 264.7 cells. […] Cells were then gated according to positive GFP (phagocytosed bacteria) using bacteria-free controls on a FACS Cantoll flow cytometer, and the percentage of cells positive for GFP was recorded and analyzed.
Substance,FapC fibril formation (ThT) (FapC),Fibrillar structures in extracellular material by TEM (S. mutans biofilm),ThT fluorescence of biofilm (UTI89 ΔcsgA biofilms),Susceptibility of biofilm bacteria to phagocytosis [1]
"RGEmNlSwMNEYSGWtMnLkMGR (RGEMNLSWMNEYSGWTMNLKMGR; not fully specified (residues 4, 6, 8, 16, 18, 20); printed as RGEmNlSwMNEYSGWtMnLkMGR) [AP90]",inhibits fibril formation,such structures were not observed,,
"RGEmNyFwMNEYYGWtMnCkMGR (RGE[dM]N[dY]F[dW]MNEYYGW[dT]M[dN]C[dK]MGR) [AP193, hydrophobic AP90 derivative, variant to support different chemical coupling reactions]",,,no significant changes,more susceptible to phagocytosis
